Assay results as given in the supplement of paper PMC10307832.

Key:
Assay in all cases: relative viability (nuclei count vs DMSO), 5 days (fraction); higher = more cells survive
[1] = compound: CCN(CC)CCNC(=O)c1c(C)[nH]c(/C=C2\C(=O)Nc3ccc(F)cc32)c1C [Sunitinib] + C[C@]1(O)C[C@@H](c2nc(-c3ccc4ccc(-c5ccccc5)nc4c3)c3c(N)nccn32)C1 [Linsitinib] (partner 1 µM)
Outline: (§1)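 Nuclei were stained with Hoechst during a one-step fixation (final 0.05% Triton X-100, 1% formaldehyde, 1 ug/ml Hoechst) carried out 5 days after dosing, then counted on 4× images. The cells, lung cancer lines in 1536-well plates, had been dosed by pin tool the day after seeding with one drug alone or a fixed anchor-drug dose plus five library-drug doses (not always all listed) in √10 steps. Relative viability is the nuclei count in treated wells divided by that in vehicle wells, and each value is the median of duplicate plates.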

[2] = compound: CCN(CC)CCNC(=O)c1c(C)[nH]c(/C=C2\C(=O)Nc3ccc(F)cc32)c1C [Sunitinib] + CC1(C)CCC(c2ccc(Cl)cc2)=C(CN2CCN(c3ccc(C(=O)NS(=O)(=O)c4ccc(N[C@H](CCN5CCOCC5)CSc5ccccc5)c(S(=O)(=O)C(F)(F)F)c4)cc3)CC2)C1 [Navitoclax] (partner 0.5 µM)
Outline: as §1

[3] = compound: CCN(CC)CCNC(=O)c1c(C)[nH]c(/C=C2\C(=O)Nc3ccc(F)cc32)c1C [Sunitinib] + CCNC(=O)c1noc(-c2cc(C(C)C)c(O)cc2O)c1-c1ccc(CN2CCOCC2)cc1 [Luminespib] (partner 0.01 µM)
Outline: as §1

[4] = compound: CCN(CC)CCNC(=O)c1c(C)[nH]c(/C=C2\C(=O)Nc3ccc(F)cc32)c1C [Sunitinib] + COc1cc2c(Oc3ccc(NC(=O)C4(C(=O)Nc5ccc(F)cc5)CC4)cc3F)ccnc2cc1OCCCN1CCOCC1 [Foretinib] (partner 0.25 µM)
Outline: as §1

Row | Cell Line | relative viability ([1]; first compound 0.02 µM) | relative viability ([1]; first compound 0.06325 µM) | relative viability ([1]; first compound 0.2 µM) | relative viability ([1]; first compound 0.6325 µM) | relative viability ([1]; first compound 2 µM) | relative viability ([2]; first compound 0.02 µM) | relative viability ([2]; first compound 0.06325 µM) | relative viability ([2]; first compound 0.6325 µM) | relative viability ([2]; first compound 2 µM) | relative viability ([3]; first compound 0.02 µM) | relative viability ([3]; first compound 0.06325 µM) | relative viability ([3]; first compound 0.2 µM) | relative viability ([3]; first compound 0.6325 µM) | relative viability ([3]; first compound 2 µM) | relative viability ([4]; first compound 0.02 µM) | relative viability ([4]; first compound 0.06325 µM) | relative viability ([4]; first compound 0.2 µM) | relative viability ([4]; first compound 0.6325 µM) | relative viability ([4]; first compound 2 µM) | relative viability ([2]; first compound 0.2 µM)
1 | HCC-15 | 0.803 | 0.838 | 0.928 | 0.902 | 0.86 | 0.705 | 0.765 | 0.744 | 0.691 | 0.251 | 0.278 | 0.347 | 0.255 | 0.227 | 1.07 | 1.14 | 1.16 | 1.13 | 1.02 | 
2 | HCC-44 | 0.641 | 0.757 | 0.772 | 0.665 | 0.727 | 0.96 | 0.964 | 0.946 | 0.969 | 0.949 | 1.1 | 1.5 | 0.972 | 1.14 |  |  |  |  |  | 1.05
3 | HCC-78 | 0.472 |  | 0.501 |  | 0.565 | 0.756 |  |  | 0.869 |  |  |  |  |  | 0.527 | 0.588 | 0.525 | 0.545 | 0.613 | 0.684
4 | HCC-366 | 0.512 | 0.619 | 0.606 | 0.628 | 0.571 | 0.963 | 1.06 | 1.05 | 0.971 |  |  |  |  |  | 0.864 | 0.908 | 0.919 | 0.827 | 0.871 | 
5 | HCC-827 | 0.971 | 0.887 | 0.98 | 1 | 0.936 | 1.01 | 1.05 | 1.01 | 0.978 | 0.572 | 0.377 | 0.606 | 0.751 | 0.554 | 1.05 | 0.958 | 1.04 | 1.03 | 1.07 | 1.04
6 | HOP-62 | 0.968 | 1.23 | 1.18 | 1.1 | 1.11 | 1.09 | 1.16 | 1.09 | 0.942 | 0.832 | 0.928 | 1 | 1.02 | 0.919 | 0.923 | 1.21 | 1.2 | 1.22 | 1.18 | 1.17
7 | IA-LM | 0.558 | 0.719 |  | 0.561 | 0.94 | 0.767 | 0.912 | 0.872 | 0.814 |  |  |  |  |  | 1.12 | 1.32 | 1.25 | 1.14 | 1.19 | 0.929
8 | LCLC-103H | 0.987 | 1.02 | 1.11 | 1.1 | 1.08 |  |  |  |  | 0.883 | 1.04 | 0.966 | 0.977 | 1.06 | 0.702 | 1.01 | 0.922 | 0.873 | 0.791 | 
9 | NCI-H358 | 0.718 | 0.685 | 0.863 | 0.592 | 0.447 |  |  |  |  | 0.375 | 0.304 | 0.564 | 0.307 | 0.242 | 0.716 | 0.774 | 0.8 | 0.748 | 0.527 | 
10 | NCI-H522 |  |  |  |  |  |  |  |  |  | 0.951 | 1.11 | 1.21 | 1.14 | 1.28 |  |  |  |  |  | 
11 | NCI-H650 | 0.9 | 0.912 | 1.09 |  | 1.08 |  |  |  |  | 0.914 | 0.83 | 0.766 | 0.803 | 0.716 | 1.03 | 1.01 | 1.06 | 1.11 | 0.975 | 
12 | NCI-H661 | 0.488 | 0.513 | 0.496 | 0.572 | 0.598 |  |  |  |  | 0.896 | 0.934 | 0.949 | 0.896 | 0.83 | 1.06 | 1.07 | 1.01 |  | 1.04 | 
13 | NCI-H1299 | 0.922 |  | 1.05 | 0.998 | 1.05 | 1.03 | 1.11 | 1.03 | 1.09 |  |  |  |  |  | 1.07 | 1.15 | 1.14 | 1.08 | 1.12 | 1.05
14 | NCI-H1563 | 1.27 | 1.23 | 1.23 | 1.21 | 1.22 |  |  |  |  | 0.54 | 0.566 | 0.5 | 0.517 | 0.479 | 0.822 | 1.05 | 0.999 | 1.03 | 0.993 | 
15 | NCI-H1650 |  |  |  |  |  | 1.48 | 1.18 | 1.34 | 1.33 | 0.219 | 0.201 | 0.206 | 0.198 | 0.217 | 1.23 | 1.14 | 1.09 | 0.977 | 1.08 | 1.4
16 | NCI-H1703 | 0.51 | 0.18 | 0.257 | 0.174 | 0.17 | 0.621 | 0.264 | 0.254 | 0.184 |  |  |  |  |  | 0.333 | 0.25 | 0.284 | 0.306 | 0.254 | 0.289
17 | NCI-H1792 | 0.556 | 0.479 | 0.419 | 0.511 | 0.561 | 0.664 |  | 0.537 | 0.66 |  | 0.38 | 0.622 | 0.483 | 0.426 |  |  |  |  |  | 0.777
18 | NCI-H2170 |  |  |  |  |  | 0.607 | 0.681 | 0.651 | 0.445 | 0.642 | 0.586 | 0.729 | 0.686 | 0.565 | 0.987 | 1.01 | 1.05 | 1.01 | 0.843 | 0.572
19 | NCI-H2342 |  |  |  |  |  |  |  |  |  | 0.658 | 0.67 | 0.868 | 0.778 | 0.838 | 0.901 | 1.17 | 1.15 | 1.18 | 1.16 | 
